For series [1], the system named is commercial broilers (trials 1 and 2), SPF broilers (trial 3). Type of series: in vivo, chicken. To be noted: all three trials, vs saline controls.
For series [2], the system named is 2 week-old chickens. Type of series: in vivo, chicken. To be noted: for CBH-2 = (skin thickness, PHA-P injected foot) − (skin thickness, PSS injected foot) / CBH-1 = (skin thickness at 12 h post-injection, left foot) − (pre-injection skin thickness, left foot): 2 week-old chickens, mean ± standard deviation, n = 4; for CBH-1 = (skin thickness at 12 h post-injection, left foot) − (pre-injection skin thickness, left foot): PHA-P.

The test system of series [3] is chickens. Further details: species or system chicken. To be noted: in vivo.
Series [4] concerns commercial broilers (trials 1 and 2), SPF broilers (trial 3). To be noted: in vivo.
Series [5] has the same test system. Conditions: in vivo. This is another data set of the same source.
The test system is the same in series [6]. To be noted: in vivo. The source holds these as a separate data set.
Series [7] shares this test system. To be noted: 7 dpi.

Like-named read-outs stand apart in the source and are kept apart here. Marks after values point to notes of the source that are not given here.

Take `O=P1(N(CCCl)CCCl)NCCCO1` (stereo not shown) [CP, Cyclophosphamide monohydrate]: the bursa size result in series [1] is recorded as “significantly smaller”. Moreover, the “CBH-2 = (skin thickness, PHA-P injected foot) − (skin thickness, PSS injected foot)” value is “.73 ± .01” in series [2] (Trial 1, IBDV strain Variant E); “.69 ± .2” in series [2] (Trial 2, IBDV strain STC); “.31 ± .07” in series [2] (Trial 3, IBDV strain STC). For the same compound, the “CBH-1 = (skin thickness at 12 h post-injection, left foot) − (pre-injection skin thickness, left foot)” value in series [2] (Trial 1, IBDV strain Variant E) is recorded as “.67 ± .07”; in series [2] (Trial 2, IBDV strain STC), “.69 ± .18”; in series [2] (Trial 3, IBDV strain STC), “.34 ± .06”. Moreover, the CBH response result in series [2] (vs saline control group) is given as “small reduction”. Also, the “humoral immune response to NDV vaccination” value in series [3] is “significantly reduced”. Moreover, the “Proventriculus score (severity of proventricular lesions)” value in series [4] is 1.00^a. Moreover, the bursal microscopic lesions entry in series [5] is “marked lymphocytic depletion and atrophy of the bursa”. In addition, the clinical appearance result in series [6] was “decreased feathering and appeared weak”. For the same compound, in series [7], the thymus size result is reported as “smaller than the rest of the groups”.

These data come from patent US20050214316A1 (priority 2003, published 2005).
